PubChem BioAssay AID248 (DTP/NCI, 2004)
“And” between values parts separate entries of the source, which are not always exact repeats. Equal values may be shown once. Toxic doses and inconclusive results are not listed.

Test system: L1210 leukemia ip in BDF1 mice, survival T/C
Test: NCI In Vivo Anticancer Drug Screen. Data for tumor model L1210 Leukemia (intraperitoneal) in B6D2F1 (BDF1) mice
Conditions: endpoint: mean survival time, higher = longer survival
Summary of the method: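 Transplanted-tumor mice were given test agent; controls received vehicle only. Survival readings from the two groups were divided (treated over control).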

[1] = dose: 100.0 mg/kg/injection, schedule: Q01DX001 (ip), vehicle: saline
[2] = dose: 100.0 mg/kg/injection, schedule: Q01DX009 (ip), vehicle: saline
[3] = dose: 200.0 mg/kg/injection, schedule: Q01DX001 (ip), vehicle: saline
[4] = dose: 400.0 mg/kg/injection, schedule: Q01DX001 (ip), vehicle: saline
[5] = dose: 100.0 mg/kg/injection, schedule: Q04DX003 (ip), vehicle: saline with Tween-80
[6] = dose: 200.0 mg/kg/injection, schedule: Q04DX003 (ip), vehicle: saline with Tween-80
[7] = dose: 400.0 mg/kg/injection, schedule: Q04DX003 (ip), vehicle: saline with Tween-80
[8] = dose: 100.0 mg/kg/injection, schedule: Q01DX001 (ip), vehicle: carboxymethylcellulose (CMC)
[9] = dose: 100.0 mg/kg/injection, schedule: Q01DX001 (ip), vehicle: Klucel (hydroxypropylcellulose) (HPC)
[10] = dose: 50.0 mg/kg/injection, schedule: Q01DX009 (ip), vehicle: saline
[11] = dose: 100.0 mg/kg/injection, schedule: Q04DX003 (ip), vehicle: saline
[12] = dose: 200.0 mg/kg/injection, schedule: Q04DX003 (ip), vehicle: saline
[13] = dose: 200.0 mg/kg/injection, schedule: Q01DX009 (ip), vehicle: saline
[14] = dose: 100.0 mg/kg/injection, schedule: Q04DX002 (ip), vehicle: saline with Tween-80
[15] = dose: 200.0 mg/kg/injection, schedule: Q04DX002 (ip), vehicle: saline with Tween-80
[16] = dose: 400.0 mg/kg/injection, schedule: Q04DX002 (ip), vehicle: saline with Tween-80
[17] = dose: 100.0 mg/kg/injection, schedule: Q01DX009 (ip), vehicle: saline with Tween-80
[18] = dose: 200.0 mg/kg/injection, schedule: Q01DX009 (ip), vehicle: saline with Tween-80
[19] = dose: 400.0 mg/kg/injection, schedule: Q01DX009 (ip), vehicle: saline with Tween-80
[20] = dose: 100.0 mg/kg/injection, schedule: Q04DX003 (ip), vehicle: Klucel (hydroxypropylcellulose) (HPC)
[21] = dose: 200.0 mg/kg/injection, schedule: Q04DX003 (ip), vehicle: Klucel (hydroxypropylcellulose) (HPC)
[22] = dose: 400.0 mg/kg/injection, schedule: Q04DX003 (ip), vehicle: Klucel (hydroxypropylcellulose) (HPC)

C/C(=N/N(C)C)c1ccc(C)cc1
T/C [1]: 93 % of control | T/C [2]: 91 % of control | T/C [3]: 97 % of control | T/C [4]: 105 % of control

O=S(=O)(O)/C(=C\c1ccccc1)c1ccccc1 (tested in a mixture with another compound)
T/C [1]: 103 % of control | T/C (dose: 100.0 mg/kg/injection, schedule: Q04DX003 (ip), vehicle: other): 106 % of control | T/C [3]: 104 % of control | T/C (dose: 200.0 mg/kg/injection, schedule: Q04DX003 (ip), vehicle: other): 106 % of control | T/C (dose: 264.0 mg/kg/injection, schedule: Q01DX001 (ip), vehicle: other): 108 % of control | T/C (dose: 400.0 mg/kg/injection, schedule: Q01DX001 (ip), vehicle: other): 94 % of control | T/C [4]: 115 % of control

O=C(O)Cn1cnc2cncnc21
T/C [5]: 118 % of control | T/C [6]: 104 % of control | T/C [7]: 102 % of control

CC(=O)OCC1OC(n2c(Br)nc3c(N)ncnc32)C2OC(C)(C)OC12 (centres undefined)
T/C (dose: 25.0 mg/kg/injection, schedule: Q01DX001 (ip), vehicle: carboxymethylcellulose (CMC)): 95 % of control | T/C (dose: 50.0 mg/kg/injection, schedule: Q01DX001 (ip), vehicle: carboxymethylcellulose (CMC)): 100 % of control | T/C [8]: 93 % of control

CCCNS(=O)(=O)c1ccc(C(N)=S)cc1
T/C [9]: 103 % of control | T/C (dose: 200.0 mg/kg/injection, schedule: Q01DX001 (ip), vehicle: Klucel (hydroxypropylcellulose) (HPC)): 108 % of control | T/C (dose: 400.0 mg/kg/injection, schedule: Q01DX001 (ip), vehicle: Klucel (hydroxypropylcellulose) (HPC)): 98 % of control

CC(C)NNCCO
T/C [10]: 98 % of control | T/C [2]: 103 % of control | T/C [11]: 89 % of control | T/C [12]: 95 % of control

N#CNS(=O)(=O)c1ccccc1
T/C [1]: 98 % of control | T/C [3]: 92 % of control | T/C [4]: 98 % of control

O=C(CC(C(=O)Nc1ccccc1)C(O)(c1ccccc1)c1ccccc1)Nc1ccccc1 (centres undefined)
T/C [8]: 95 % of control | T/C (dose: 200.0 mg/kg/injection, schedule: Q01DX001 (ip), vehicle: carboxymethylcellulose (CMC)): 91 % of control | T/C (dose: 400.0 mg/kg/injection, schedule: Q01DX001 (ip), vehicle: carboxymethylcellulose (CMC)): 95 % of control

ClCCN(CCCl)CCN1c2ccccc2Sc2ccccc21
T/C (dose: 9.37 mg/kg/injection, schedule: Q01DX009 (ip), vehicle: Klucel (hydroxypropylcellulose) (HPC)): 114 % of control | T/C (dose: 12.5 mg/kg/injection, schedule: Q01DX001 (ip), vehicle: Klucel (hydroxypropylcellulose) (HPC)): 114 % of control | T/C (dose: 12.5 mg/kg/injection, schedule: Q04DX003 (ip), vehicle: saline with Tween-80): 103 % of control | T/C (dose: 16.5 mg/kg/injection, schedule: Q01DX001 (ip), vehicle: Klucel (hydroxypropylcellulose) (HPC)): 100 % of control and 111 % of control | T/C (dose: 18.75 mg/kg/injection, schedule: Q01DX009 (ip), vehicle: Klucel (hydroxypropylcellulose) (HPC)): 106 % of control | T/C (dose: 25.0 mg/kg/injection, schedule: Q01DX001 (ip), vehicle: Klucel (hydroxypropylcellulose) (HPC)): 95 % of control and 112 % of control | T/C (dose: 25.0 mg/kg/injection, schedule: Q04DX003 (ip), vehicle: saline with Tween-80): 108 % of control | T/C (dose: 29.0 mg/kg/injection, schedule: Q01DX015 (ip), vehicle: carboxymethylcellulose (CMC)): 102 % of control | T/C (dose: 37.5 mg/kg/injection, schedule: Q01DX001 (ip), vehicle: Klucel (hydroxypropylcellulose) (HPC)): 101 % of control and 122 % of control | T/C (dose: 37.5 mg/kg/injection, schedule: Q01DX009 (ip), vehicle: Klucel (hydroxypropylcellulose) (HPC)): 89 % of control | T/C (dose: 50.0 mg/kg/injection, schedule: Q04DX003 (ip), vehicle: saline with Tween-80): 92 % of control | T/C (dose: 85.0 mg/kg/injection, schedule: Q04DX003 (ip), vehicle: Klucel (hydroxypropylcellulose) (HPC)): 115 % of control | T/C (dose: 88.8 mg/kg/injection, schedule: Q01DX001 (ip), vehicle: carboxymethylcellulose (CMC)): 115 % of control | T/C [9]: 119 % of control | T/C [8]: 104 % of control | T/C (dose: 133.0 mg/kg/injection, schedule: Q01DX001 (ip), vehicle: carboxymethylcellulose (CMC)): 113 % of control and 115 % of control

Nc1ccc(N2CCNCC2)cc1
T/C [10]: 101 % of control | T/C [2]: 107 % of control | T/C [13]: 111 % of control

CN(CC(=O)O)Cc1oc(CO)cc(=O)c1O
T/C [1]: 110 % of control | T/C [3]: 95 % of control | T/C [4]: 95 % of control

ClCCN(CCCl)c1ccc(C[n+]2ccc3ccccc3c2)cc1
T/C (dose: 8.0 mg/kg/injection, schedule: Q01DX015 (ip), vehicle: carboxymethylcellulose (CMC)): 109 % of control | T/C (dose: 16.0 mg/kg/injection, schedule: Q01DX015 (ip), vehicle: carboxymethylcellulose (CMC)): 113 % of control | T/C (dose: 32.0 mg/kg/injection, schedule: Q01DX015 (ip), vehicle: carboxymethylcellulose (CMC)): 106 % of control

c1ccc2c(c1)Oc1ccccc1[Te]2
T/C [14]: 100 % of control | T/C [15]: 103 % of control | T/C [16]: 88 % of control

Cc1c(Cl)cccc1NC(=O)OC/C=C/c1ccccc1
T/C (dose: 100.0 mg/kg/injection, schedule: Q01DX001 (ip), vehicle: saline with Tween-80): 93 % of control | T/C [17]: 101 % of control and 105 % of control | T/C [14]: 101 % of control and 114 % of control | T/C [5]: 91 % of control | T/C (dose: 200.0 mg/kg/injection, schedule: Q01DX001 (ip), vehicle: saline with Tween-80): 93 % of control | T/C [18]: 94 % of control and 101 % of control | T/C [15]: 96 % of control and 106 % of control | T/C [6]: 93 % of control | T/C (dose: 400.0 mg/kg/injection, schedule: Q01DX001 (ip), vehicle: saline with Tween-80): 88 % of control | T/C [19]: 94 % of control and 101 % of control | T/C [16]: 93 % of control and 97 % of control | T/C [7]: 98 % of control

NC(Cc1cc([N+](=O)[O-])ccc1CN(CCCl)CCCl)C(=O)O (centres undefined)
T/C (dose: 3.6 mg/kg/injection, schedule: Q04DX003 (ip), vehicle: saline): 161 % of control | T/C (dose: 6.0 mg/kg/injection, schedule: Q01DX001 (ip), vehicle: saline): 198 % of control | T/C (dose: 6.0 mg/kg/injection, schedule: Q04DX003 (ip), vehicle: saline): 158 % of control and 315 % of control | T/C (dose: 10.0 mg/kg/injection, schedule: Q01DX001 (ip), vehicle: saline): 173 % of control and 248 % of control | T/C (dose: 10.0 mg/kg/injection, schedule: Q04DX003 (ip), vehicle: saline): 163 % of control and 352 % of control | T/C (dose: 16.7 mg/kg/injection, schedule: Q01DX001 (ip), vehicle: saline): 302 % of control and 309 % of control | T/C (dose: 16.7 mg/kg/injection, schedule: Q04DX003 (ip), vehicle: saline): 151 % of control

OCc1ccccc1
T/C [17]: 105 % of control | T/C [20]: 100 % of control | T/C [18]: 102 % of control | T/C [21]: 101 % of control | T/C [19]: 96 % of control | T/C [22]: 98 % of control

O=C(N1CCCCC1)C(Cl)(Cl)Cl
T/C (dose: 50.0 mg/kg/injection, schedule: Q01DX009 (ip), vehicle: Klucel (hydroxypropylcellulose) (HPC)): 98 % of control | T/C (dose: 100.0 mg/kg/injection, schedule: Q01DX009 (ip), vehicle: Klucel (hydroxypropylcellulose) (HPC)): 88 % of control | T/C (dose: 100.0 mg/kg/injection, schedule: Q04DX002 (ip), vehicle: Klucel (hydroxypropylcellulose) (HPC)): 92 % of control | T/C (dose: 200.0 mg/kg/injection, schedule: Q04DX002 (ip), vehicle: Klucel (hydroxypropylcellulose) (HPC)): 110 % of control

c1nc2c([nH]1)CNCC2
T/C [2]: 94 % of control | T/C [11]: 100 % of control | T/C [13]: 93 % of control | T/C [12]: 98 % of control | T/C (dose: 400.0 mg/kg/injection, schedule: Q01DX009 (ip), vehicle: saline): 94 % of control | T/C (dose: 400.0 mg/kg/injection, schedule: Q04DX003 (ip), vehicle: saline): 108 % of control

CCOC(=O)C1(C(=O)OCC)CCC(OCC)N1C(=O)c1cc(OC)c(OC)cc1[N+](=O)[O-] (centres undefined)
T/C [20]: 105 % of control | T/C [21]: 100 % of control | T/C [22]: 99 % of control

CCCCCCCCCCCCCCCCN(C)C(=S)c1ccc(OC)cc1
T/C [20]: 101 % of control | T/C [21]: 101 % of control | T/C [22]: 94 % of control
